{
  "source": "paper PMC8748766",
  "about": "“The catalytic activity of TCPTP is auto-regulated by its intrinsically disordered tail and activated by Integrin alpha-1” (Nature Communications, 2022)",
  "molecules": {"B1": {"name": "TCPTP: T-Cell Protein Tyrosine Phosphatase, TC45 isoform, full-length residues 1–387 (protein)", "chain": "MPTTIEREFEELDTQRRWQPLYLEIRNESHDYPHRVAKFPENRNRNRYRDVSPYDHSRVKLQNAENDYINASLVDIEEAQRSYILTQGPLPNTCCHFWLMVWQQKTKAVVMLNRIVEKESVKCAQYWPTDDQEMLFKETGFSVKLLSEDVKSYYTVHLLQLENINSGETRTISHFHYTTWPDFGVPESPASFLNFLFKVRESGSLNPDHGPAVIHCSAGIGRSGTFSLVDTCLVLMEKGDDINIKQVLLNMRKYRMGLIQTPDQLRFSYMAIIEGAKCIKGDSSIQKRWKELSKEDLSPAFDHSPNKIMTEKYNGNRIGLEEEKLTGDRCTGLSSKMQDTMEENSESALRKRIREDRKATTAQKVQQMKQRLNENERKRKRPRLTDT", "modifications": "left off: His6, N-terminal, cleaved"}},
  "key": {"TCPTP [1]": {"target": "T1, TCPTP (Homo sapiens, UniProt P17706)", "T1 construct": "fragments of TCPTP (residues: 1–387); His6 (N, cleaved yes); made in house; host or cells: E. coli BL21 (DE3) RIL", "T1 sequence (P17706 1-387 isoform P17706-2)": "B1 chain", "experiment": "Kinetics of TCPTP with saturating ITGA1 peptide, pEGFR peptide-2 substrate", "assay_type": "biochemical", "details": "TCPTP saturated with ITGA1 peptide (ITGA1_TR 1 μM; ITGA1_FCT 25 μM), mean ± SE, n = 9", "description": "(§1) Polymerase chain reaction (PCR) fragments of TCPTP (residues: 1–387) TCPTPCAT (catalytic domain, residues: 1–288, 1–302 or 1–314), TCPTPTail (C-terminal tail, residues: 289–387 or 303–387) were amplified from full-length human TCPTP (TC45 isoform). TCPTP, TCPTPCAT (residues: 1–288, 1–314), and TCPTPTail (residues: 289–387) fragments were cloned into pMCSG7 including a N-terminal His6-tag using ligation-independent cloning. For all NMR experiments, the PCR fragments of TCPTP, TCPTPCAT (residues: 1–302) and TCPTPTail (residue: 303–387) were sub-cloned into pRP1B as previously described.\n(§2) The rate of dephosphorylation of TCPTP and TCPTPCAT (residue 1–314) against 2 phosphotyrosine peptides derived from EGFR was monitored either with or without ITGA1 peptide (ITGA1_FCT & ITGA1_TR) in assay buffer (25 mM Hepes pH 7.4, 50 mM NaCl and 1 mM DTT). Lyophilized powder of all synthetic peptides was dissolved in assay buffer without DTT (phosphopeptides, 5 mM; ITGA1 peptides, 2 mM). For the kinetic analysis, the concentration of the enzyme was fixed at 1 nM while the substrate (phosphopeptides) concentration was varied from 2.5 μM to 160 μM in a total reaction volume of 200 μl. Effect of ITGA1 peptide on TCPTP & TCPTPCAT kinetics were assessed in saturated condition by adding an excess amount of ITGA1 peptide to the reaction mixture (ITGA1_TR = 1 μM; ITGA1_FCT = 25 μM). The reaction was incubated at 30 °C for 30 min and stopped by the addition of 30 μl phosphate reagent (phosphate colorimetric assay kit; Bio Vision) following the manufacturer’s instructions. Data were normalized and fitted using a nonlinear curve, and kinetics parameters (KM and kcat) were calculated from the Michaelis-Menten equation using Graph Pad Prism 9.0. All data points in the enzyme kinetics experiment were measured in triplicate, and the experiments were repeated three times."}, "TCPTP [2]": {"target": "T1, TCPTP", "experiment": "EC50 assay: TCPTP activation by ITGA1 peptides (pEGFR peptide-1 dephosphorylation)", "assay_type": "biochemical", "details": "1 nM TCPTP, 50 μM pEGFR peptide-1, n = 3", "description": "as §1\nTo determine the EC50, synthesized ITGA1 peptides (ITGA1_FCT, ITGA1_TCT and ITGA1_TR) were mixed with TCPTP, and phosphatase activity was measured using the phospho-EGFR peptides (pEGFR peptide-1) as substrate. Lyophilized powder of all peptides was dissolved in 25 mM Hepes pH 7.4, 50 mM NaCl. For the assay, the TCPTP concentration was fixed at 1 nM and substrate phospho-peptide at 50 μM. […] The absorbance of the reaction mixture was measured at 650 nm, which was converted to the amount of phosphate produced in reaction based on the standard curve generated from the known phosphate concentration. Data obtained from the reaction was fitted using nonlinear regression mode and EC50 values were calculated based on the equation function “Log(agonist) vs. response-variable slope” using Graph Pad Prism 9.0."}, "TCPTPCAT": {"target": "T2, TCPTPCAT (Homo sapiens, UniProt P17706)", "T2 construct": "TCPTP and TCPTPCAT (residue 1–314) against 2 phosphotyrosine peptides derived from EGFR; His6 (N, cleaved yes); made in house; host or cells: E. coli BL21 (DE3) RIL", "T2 sequence (P17706 1-314 isoform P17706-2)": "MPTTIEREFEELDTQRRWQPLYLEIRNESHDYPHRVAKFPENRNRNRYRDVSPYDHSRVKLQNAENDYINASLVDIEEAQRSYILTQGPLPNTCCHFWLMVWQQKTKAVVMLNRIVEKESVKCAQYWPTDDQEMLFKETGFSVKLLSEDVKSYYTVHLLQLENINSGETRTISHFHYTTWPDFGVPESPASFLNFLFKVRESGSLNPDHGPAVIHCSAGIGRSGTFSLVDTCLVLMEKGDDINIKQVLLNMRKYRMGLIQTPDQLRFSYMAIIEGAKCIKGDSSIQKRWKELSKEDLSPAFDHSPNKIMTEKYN", "experiment": "NMR titration (2D HSQC/TROSY) binding to TCPTPCAT", "details": "2D [1H,15N] TROSY, unlabeled ligand added", "description": "as §1\nNMR data were collected on either Bruker NEO 600 MHz or 800 MHz spectrometers equipped with TCI HCN z-gradient cryoprobes at 298 K or 283 K. NMR measurements of TCPTP’s variant construct were recorded using (^1H,^15N)-, (^2H,^15N)-, (^1H,^15N,^13C), or (^2H,^15N,^13C)-labeled protein at a final concentration of 0.6 mM for backbone assignment or 0.1 mM for titration in NMR buffer and 90% H2O/10% D2O. The sequence-specific backbone assignments of TCPTP (residues 1–387), TCPTPCAT (residues 1–302), TCPTPTail (residues 303–387) and other variants were achieved using 3D triple resonance experiments including […], 3D HNCA, 3D HN(CO)CA, 3D HN(CO)CACB, and 3D HNCACB either as HSQC or TROSY variations. All NMR data were processed using TopSpin 4.0.5[44] and analyzed using either CARA (http://www.cara.nmr.ch) and/or CcpNMR[45]."}, "TCPTP [3]": {"target": "T1, TCPTP", "experiment": "Kinetics of TCPTP with saturating ITGA1 peptide, pEGFR peptide-1 substrate", "assay_type": "biochemical", "details": "TCPTP saturated with ITGA1 peptide (ITGA1_TR 1 μM; ITGA1_FCT 25 μM), mean ± SE, n = 9", "description": "as §1, §2"}, "TCPTP [4]": {"target": "T1, TCPTP", "experiment": "Effect of ITGA1, ITGA10 & ITGA11 peptide on TCPTP activity, pEGFR peptide-2", "assay_type": "biochemical", "details": "pEGFR peptide-2 substrate, n = 9", "description": "as §1\nRelative activity of TCPTP and its variant mutant construct were measured by adding 1 nM of enzymes against the fixed concentration of substrate (100 μM of phosphopeptides), the reaction was incubated at 30 °C for 30 min in assay buffer before getting stopped as described above. […]\nSupplementary Figure 8: TCPTP is distinctively activated by Integrin cytoplasmic tail with positive charge residue clusters. a Sequence alignment of the cytoplasmic tail for the human Integrin family. Positive charge residues are highlighted in blue, while negative charge residues are red; a black box highlights large clusters of positive charge residue. b Effect of ITGA1, ITGA10 & ITGA11 on the catalytic activity of TCPTP, measured against pEGFR peptide-2, derived from the EGFR’s kinase domain activation loop. […]"}, "[5]": {"experiment": "DiFMUP assay of TCPTP, TCPTPCAT, PTP1B and PTP1BCAT", "assay_type": "biochemical", "details": "10 μM DiFMUP, 2.5 nM protein, pH 7.4, 25 min, fluorescence 455 nm; n = 9", "procedure": "Activity of TCPTP, TCPTPCAT (residue 1–314) either with or without ITGA1 peptides (ITGA1_TR; 1:50 molar ratio, ITGA1_FCT; 1:1000 molar ratio), PTP1B (residue 1–400) and PTP1BCAT (residue 1–321) were assessed in assay buffer (25 mM Hepes pH 7.4, 50 mM NaCl, and 1 mM DTT). The assay was performed in black polystyrene flat bottom 96-well plate. The concentration of DiFMUP was fixed at 10 μM and protein concentration at 2.5 nM in total reaction volume of 100 μl. The emitted fluorescent signal at 455 nm was continuously recorded for 25 min using a Tecan Infinite M1000 pro microplate reader (Tecan i-control, 2.0.10.0)."}, "[6]": {"tested_on": "pEGFR peptide-2, derived from the EGFR's kinase domain activation loop", "experiment": "Phosphatase kinetic analysis (Michaelis-Menten) of TCPTP constructs, pEGFR peptide-2 substrate", "assay_type": "biochemical", "procedure": "as §2\nSupplementary Table 2: Enzymatic activity assay (Michaelis-Menten analysis); substrate pEGFR peptide-2, derived from the EGFR’s kinase domain activation loop. Calculated kinetic parameter are presented as the mean of nine independent reactions (n=9; mean ± SE). Source data are provided as a Source Data file. kcat (s-1) Km (µM) kcat/Km (µM -1s-1)"}, "[7]": {"tested_on": "pEGFR peptide-1, derived from the cytoplasmic tail of EGFR", "experiment": "Phosphatase kinetic analysis (Michaelis-Menten) of TCPTP constructs, pEGFR peptide-1 substrate", "assay_type": "biochemical", "procedure": "as §2"}, "[8]": {"details": "pEGFR peptide-2 2.5-160 μM, 1 nM enzyme, pH 7.4, 30 °C 30 min, mean ± SE, n = 9"}},
  "data": [
    {"molecule": "KIGFFKRPLKKKMEK [ITGA1_FCT, ITGA1 full cytoplasmic tail: …]", "values": [
      {"measurement": "kcat", "setting": "TCPTP [1]; pEGFR peptide-2, pH 7.4, 30 °C 30 min", "result": "30.2 ± 1.2", "unit": "s⁻¹"},
      {"measurement": "Km", "setting": "TCPTP [1]; pEGFR peptide-2", "result": "32.8 ± 3.7", "unit": "µM"},
      {"measurement": "kcat/Km", "setting": "TCPTP [1]; pEGFR peptide-2", "result": "0.9 ± 0.1", "unit": "µM -1s-1"},
      {"measurement": "activation relative to ITGA1_TCT", "setting": "TCPTP [2]", "result": "functions better than ITGA1_TCT"},
      {"measurement": "NMR titration: CSPs in (2H,15N)-labeled TCPTPCAT", "setting": "TCPTPCAT", "result": "significant CSPs in the same residues"},
      {"measurement": "kcat", "setting": "TCPTP [3]; pEGFR peptide-1, 1 nM enzyme, pH 7.4, 30 °C 30 min", "result": "26.6 ± 0.8", "unit": "s⁻¹"},
      {"measurement": "Km", "setting": "TCPTP [3]; pEGFR peptide-1, pH 7.4, 30 °C", "result": "20.2 ± 1.9", "unit": "µM"},
      {"measurement": "kcat/Km", "setting": "TCPTP [3]; pEGFR peptide-1", "result": "1.3e+06 ± 100000", "unit": "M⁻¹ s⁻¹"}
    ]},
    {"molecule": "KLGFFAHKKIPEEEKREEKLEQ [ITGA10]", "values": [
      {"measurement": "TCPTP activation", "setting": "TCPTP [4]", "result": "fails to do so"}
    ]},
    {"molecule": "KLGFFRSARRRREPGLDPTPKVLE [ITGA11]", "values": [
      {"measurement": "TCPTP activation", "setting": "TCPTP [4]", "result": "efficiently activates TCPTP"}
    ]},
    {"molecule": "B1", "values": [
      {"measurement": "DiFMUP dephosphorylation, times slower than with TCPTPCAT", "setting": "[5]", "result": "~ 3 times"},
      {"measurement": "Km", "setting": "[6]; [8]", "result": "21.2 ± 2.6", "unit": "µM"},
      {"measurement": "kcat", "setting": "[6]; [8]", "result": "13.8 ± 0.5", "unit": "s⁻¹"},
      {"measurement": "kcat/Km", "setting": "[6]; pEGFR peptide-2, mean ± SE, n = 9", "result": "0.6 ± 0.1", "unit": "µM -1s-1"},
      {"measurement": "rate of dephosphorylation, fold slower than TCPTPCAT", "setting": "[6]; pEGFR peptide-2, vs TCPTPCAT", "result": "~ 3 fold"},
      {"measurement": "kcat", "setting": "[7]; pEGFR peptide-1 2.5-160 μM, 1 nM enzyme, 25 mM Hepes pH 7.4, 50 mM NaCl, 1 mM DTT, 30 °C 30 min, mean ± SE, n = 9 (TCPTPCAT, TCPTP) or 12 (TCPTPC-term, TCPTPL1)", "result": "12.2 ± 0.2", "unit": "s⁻¹"},
      {"measurement": "Km", "setting": "[7]; pEGFR peptide-1 2.5-160 μM, 1 nM enzyme, pH 7.4, 30 °C 30 min, mean ± SE, n = 9 (TCPTPCAT, TCPTP) or 12 (TCPTPC-term, TCPTPL1)", "result": "12.4 ± 0.6", "unit": "µM"},
      {"measurement": "kcat/Km", "setting": "[7]; pEGFR peptide-1, pH 7.4, 30 °C, mean ± SE, n = 9 (TCPTPCAT, TCPTP) or 12 (TCPTPC-term, TCPTPL1)", "result": "1e+06 ± 100000", "unit": "M⁻¹ s⁻¹"},
      {"measurement": "rate of dephosphorylation, fold slower than TCPTPCAT", "setting": "[7]; pEGFR peptide-1, vs TCPTPCAT", "result": "~ 3 fold"}
    ]}
  ]
}
